Consider four molecules from patent US20120039826A1, “COSMETIC COMPOSITION FOR SKIN LIGHTENING” (priority 2009, published 2012).

In the experiment the test system is Keratinocytes (HaCaT cells). The experiment is described as follows: Keratinocyte differentiation assay. The format is cell-based. The settings on record: HaCaT cells cultured with active 24 hours, acridine orange, % of control (control = 100). The procedure:
Keratinocyte Differentiation Assay
This is an in vitro cell culture based assay to evaluate the capability of these actives to alter cell differentiation process. Keratinocytes (HaCaT cells—5×10^4 cells/well) were grown in 24 well plates for 24 hours. These proliferating keratinocytes were further cultured with actives for 24 hours. Cells were then washed with PBS and stained with acridine orange in PBS (Sigma Chemical Co, USA). Cells were washed 15 minutes later and viewed using an epi-fluorescent microscope (Olympus BX 50), at 20× magnification, using appropriate excitation and barrier filters, to simultaneously view red and green fluorescence (excitation: 460 nm and emission >515 nm). The entire plate was scanned and the percentage of differentiated keratinocytes (cells with red fluorescence evenly distributed within the cytoplasm) was estimated. Data were represented as % of control. Higher % values indicate increased cell differentiation.

Turning to `CC(=O)O.N` [Ammonium acetate], the “% Differentiation” value (concentration 0.002%) was found to be 175%.

`CC(=O)[O-].CC(=O)[O-].[Mg+2]` [Magnesium acetate]: the “% Differentiation” value runs as follows: (concentration 0.002%) 250%; (concentration 0.01%) 237%.

`O=C([O-])C(O)C(O)C(=O)[O-].[Na+].[Na+]` (stereo not drawn) [Na tartarate (c4), Na tartarate]: where the note is “concentration 0.01%”, the “% Differentiation” value was 165%.

Consider `CC(=O)[O-].[Na+]` [Sodium acetate], for which the “% Differentiation” value reads like this: (concentration 0.002%) 175%; (concentration 0.01%) 168%.
